Source: patent US20260219274A1, “POLYOL SWEETNERS AND CARDIOVASCULAR AND THROMBOTIC EVENT RISK” (THE CLEVELAND CLINIC FOUNDATION, priority 2023, published 2026)

System: platelets of healthy volunteers
Test: Erythritol or glucose ingestion: platelet aggregation and granule release
Assay type: in vivo, human
Method: This single center trial was approved by the Cleveland Clinic Institutional Review Board (clinicaltrials.gov identifier NCT04731363). Following subject consent (nonsmokers without CVD, hypertension, or diabetes), blood was drawn after overnight fast and 30 min following consumption of water containing 30 g of […] glucose (n=10, 30.1±11 years of age, 40% male), or erythritol (n=10, 30.5±8 years of age, 50% male), a quantity commonly found in erythritol-sweetened foods and the daily intake of some subjects based on 2013-2014 National Health and Nutrition Examination Survey (NHANES) data and FDA filings.(4,5).
Following erythritol consumption, postprandial circulating erythritol levels (assessed using stable-isotope-dilution liquid-chromatography tandem mass spectrometry (LC/MS/MS)3) were >1000-fold increased compared to baseline levels (median[inter quartile range], 6480[5930-7300]μM versus 3.75[3.35-3.87]μM, P<0.0001). In contrast, circulating erythritol levels remained similar before versus after glucose consumption (3.0[2.6-4.0]μM versus 2.9[2.7-3.8]μM, P=0.87; glucose levels before versus after 86.5(81.8-93.0) versus 127.0(122.3-132.3), P=0.002). […] In contrast, glucose consumption had no effect on platelet aggregation.

With `OC[C@@H](O)[C@@H](O)CO` [erythritol] the “platelet aggregation responses to ADP and TRAP6 after ingestion” value (30 min after 30 g vs baseline) was “striking increase”, the “stimulus-dependent release of alpha granule marker CXCL4” value (TRAP6 (7.5 μM), ADP (2.0 μM), after ingestion) was “markedly enhanced” and the “stimulus-dependent release of dense granule marker serotonin” value (TRAP6 and ADP, after ingestion) was “markedly enhanced”.
